# Results published in ChEMBL document CHEMBL5518232, “Discovery of New Tricyclic Oxime Sampangine Derivatives as Potent Antifungal Agents for the Treatment of Cryptococcosis and Candidiasis” (J Med Chem, 2024).
# Calls of active or inactive are those of the source. The rule behind the calls is not given here.
# Columns and labels:
# Candida albicans [1] = assay: Antifungal activity against Candida albicans SC5314 assessed as reduction in fungal growth incubated for 48 hrs by liquid based microdilution method; assay type: functional
# Candida albicans [2] = assay: Antifungal activity against Candida albicans 0304103 assessed as reduction in fungal growth incubated for 48 hrs by liquid based microdilution method; assay type: functional
# Candida tropicalis = assay: Antifungal activity against Candida tropicalis 10186 assessed as reduction in fungal growth incubated for 48 hrs by liquid based microdilution method; assay type: functional
# Nakaseomyces glabratus = assay: Antifungal activity against Candida glabrata 9073 assessed as reduction in fungal growth incubated for 48 hrs by liquid based microdilution method; assay type: functional
# Cryptococcus neoformans [3] = assay: Antifungal activity against Cryptococcus neoformans H99 assessed as reduction in fungal growth incubated for 72 hrs by liquid based microdilution method; assay type: functional
# Cryptococcus neoformans [4] = assay: Antifungal activity against Cryptococcus neoformans ATCC 34877 assessed as reduction in fungal growth incubated for 72 hrs by liquid based microdilution method; assay type: functional
# [5] = Antifungal activity against Cryptococcus gattii VGI ATCC 14116 assessed as reduction in fungal growth incubated for 72 hrs by liquid based microdilution method; assay type: functional
# Candida albicans [6] = assay: Synergistic antifungal activity against Candida albicans 0304103 assessed as inhibition of fungal growth incubated for 48 hrs in presence of (Z)-8-(hydroxyimino)-3-methylthieno[3',2':4,5]benzo[1,2-d]isoxazol-4(8H)-one by checkerboard microdilution assay; assay type: functional
# Candida albicans [7] = assay: Synergistic antifungal activity against Candida albicans 0304103 assessed as inhibition of fungal growth incubated for 48 hrs in presence of ((Z)-8-(methoxyimino)-3-methylthieno[3',2':4,5]benzo[1,2-d]isoxazol-4(8H)-one by checkerboard microdilution assay; assay type: functional
# Candida albicans [8] = assay: Synergistic antifungal activity against Candida albicans 0304103 assessed as inhibition of fungal growth incubated for 48 hrs in presence of (Z)-8-(ethoxyimino)-3-methylthieno[3',2':4,5]benzo[1,2-d]isoxazol-4(8H)-one by checkerboard microdilution assay; assay type: functional
# Candida albicans [9] = assay: Synergistic antifungal activity against Candida albicans 0304103 assessed as inhibition of fungal growth incubated for 48 hrs in presence of (Z)-8-(isopropoxyimino)-3-methylthieno[3',2':4,5]benzo[1,2-d]isoxazol-4(8H)-one by checkerboard microdilution assay; assay type: functional
# Candida albicans [10] = assay: Synergistic antifungal activity against Candida albicans 0304103 assessed as inhibition of fungal growth incubated for 48 hrs in presence of (Z)-3-ethyl-8-(methoxyimino)thieno[3',2':4,5]benzo[1,2-d]isoxazol-4(8H)-one by checkerboard microdilution assay; assay type: functional
# Candida albicans [11] = assay: Synergistic antifungal activity against Candida albicans 0304103 assessed as inhibition of fungal growth incubated for 48 hrs in presence of (Z)-8-(methoxyimino)-3-propylthieno[3',2':4,5]benzo[1,2-d]isoxazol-4(8H)-one by checkerboard microdilution assay; assay type: functional
# Candida albicans [12] = assay: Synergistic antifungal activity against Candida albicans 0304103 assessed as inhibition of fungal growth incubated for 48 hrs in presence of (4Z,8Z)-benzo[1,2-b:4,5-b']dithiophene-4,8-dione O,O-dimethyl dioxime by checkerboard microdilution assay; assay type: functional
# Candida albicans [13] = assay: Synergistic antifungal activity against Candida albicans 0304103 assessed as inhibition of fungal growth incubated for 48 hrs in presence of (Z)-8-(methoxyimino)benzo[1,2-b:4,5-b']dithiophen-4(8H)-one by checkerboard microdilution assay; assay type: functional
# Candida albicans [14] = assay: Synergistic antifungal activity against Candida albicans 0304103 assessed as inhibition of fungal growth incubated for 48 hrs in presence of (Z)-9-(hydroxyimino)-3-methylnaphtho[2,3-d]isoxazol-4(9H)-one by checkerboard microdilution assay; assay type: functional
# Candida albicans [15] = assay: Synergistic antifungal activity against Candida albicans 0304103 assessed as inhibition of fungal growth incubated for 48 hrs in presence of (Z)-9-(methoxyimino)-3-methylnaphtho[2,3-d]isoxazol-4(9H)-one by checkerboard microdilution assay; assay type: functional
# Candida albicans [16] = assay: Synergistic antifungal activity against Candida albicans 0304103 assessed as inhibition of fungal growth incubated for 48 hrs in presence of (Z)-9-(ethoxyimino)-3-methylnaphtho[2,3-d]isoxazol-4(9H)-one by checkerboard microdilution assay; assay type: functional
# Candida albicans [17] = assay: Synergistic antifungal activity against Candida albicans 0304103 assessed as inhibition of fungal growth incubated for 48 hrs in presence of (Z)-8-(methoxyimino)-3-methylbenzofuro[6,5-d]isoxazol-4(8H)-one by checkerboard microdilution assay; assay type: functional
# Cryptococcus neoformans [18] = assay: Inhibition of biofilm formation in Cryptococcus neoformans H99 at 64 ug/ml incubated for 24 hrs by microplate based analysis relative to control; assay type: functional
# Candida albicans [19] = assay: Inhibition of biofilm formation in Candida albicans 0304103 at 2 ug/ml incubated for 32 hrs by microplate based analysis; assay type: functional, organism-based; details: dose 2.0 µg/ml
# Candida albicans [20] = assay: Inhibition of biofilm formation in Candida albicans 0304103 at 8 ug/ml incubated for 24 hrs in presence of (Z)-8-(methoxyimino)-3-methylthieno[3',2':4,5]benzo[1,2-d]isoxazol-4(8H)-one by microplate based analysis relative to control; assay type: functional
# Candida albicans [21] = assay: Antifungal activity against Candida albicans 0304103 assessed as downregulation of TEC1 expression at 8 ug/ml incubated for 24 hrs in presence of (Z)-8-(methoxyimino)-3-methylthieno[3',2':4,5]benzo[1,2-d]isoxazol-4(8H)-one by RT-PCR analysis; assay type: functional, organism-based; details: dose 8.0 µg/ml
# Candida albicans [22] = assay: Antifungal activity against Candida albicans 0304103 assessed as downregulation of RLM1 expression at 8 ug/ml incubated for 24 hrs in presence of (Z)-8-(methoxyimino)-3-methylthieno[3',2':4,5]benzo[1,2-d]isoxazol-4(8H)-one by RT-PCR analysis; assay type: functional, organism-based; details: dose 8.0 µg/ml
# Candida albicans [23] = assay: Antifungal activity against Candida albicans 0304103 assessed as downregulation of APH5 expression at 8 ug/ml incubated for 24 hrs in presence of (Z)-8-(methoxyimino)-3-methylthieno[3',2':4,5]benzo[1,2-d]isoxazol-4(8H)-one by RT-PCR analysis; assay type: functional, organism-based; details: dose 8.0 µg/ml
# Candida albicans [24] = assay: Antifungal activity against Candida albicans 0304103 assessed as downregulation of GCA1 expression at 8 ug/ml incubated for 24 hrs in presence of (Z)-8-(methoxyimino)-3-methylthieno[3',2':4,5]benzo[1,2-d]isoxazol-4(8H)-one by RT-PCR analysis; assay type: functional, organism-based; details: dose 8.0 µg/ml
# Candida albicans [25] = assay: Antifungal activity against Candida albicans 0304103 assessed as downregulation of GCA2 expression at 8 ug/ml incubated for 24 hrs in presence of (Z)-8-(methoxyimino)-3-methylthieno[3',2':4,5]benzo[1,2-d]isoxazol-4(8H)-one by RT-PCR analysis; assay type: functional, organism-based; details: dose 8.0 µg/ml
# Candida albicans [26] = assay: Antifungal activity against Candida albicans 0304103 assessed as downregulation of CDR1 expression at 8 ug/ml incubated for 24 hrs in presence of (Z)-8-(methoxyimino)-3-methylthieno[3',2':4,5]benzo[1,2-d]isoxazol-4(8H)-one by RT-PCR analysis; assay type: functional, organism-based; details: dose 8.0 µg/ml
# Candida albicans [27] = assay: Antifungal activity against Candida albicans 0304103 assessed as downregulation of ERG11 expression at 8 ug/ml incubated for 24 hrs in presence of (Z)-8-(methoxyimino)-3-methylthieno[3',2':4,5]benzo[1,2-d]isoxazol-4(8H)-one by RT-PCR analysis; assay type: functional, organism-based; details: dose 8.0 µg/ml
# Candida albicans [28] = assay: Antifungal activity against Candida albicans 0304103 assessed as reversal of ERG11 expression by measuring fold change at 8 ug/ml incubated for 24 hrs in presence of (Z)-8-(methoxyimino)-3-methylthieno[3',2':4,5]benzo[1,2-d]isoxazol-4(8H)-one by RT-PCR analysis (reference value: 8.8); assay type: functional; details: dose 8 µg/ml
# Candida albicans [29] = assay: In vivo antifungal activity against Candida albicans 0304103 infected in […] ICR mouse model assessed as reduction in fungal burden in kidney at 5 mg/kg, ip measured for 5 days in presence of (Z)-8-(methoxyimino)-3-methylthieno[3',2':4,5]benzo[1,2-d]isoxazol-4(8H)-one (reference value: 7.37 log10CFU/g); assay type: functional; details: time 5 day
# Candida albicans [30] = assay: In vivo antifungal activity against Candida albicans SC5314 infected in […] ICR mouse model assessed as reduction in fungal burden in kidney at 0.5 mg/kg, ip measured for 5 days in presence of (Z)-8-(methoxyimino)-3-methylthieno[3',2':4,5]benzo[1,2-d]isoxazol-4(8H)-one; assay type: functional; details: time 5 day
compound,measurement,setting,value
OC(Cn1cncn1)(Cn1cncn1)c1ccc(F)cc1F [FLUCONAZOLE],MIC80,Candida albicans [1],0.5 µg/mL
same,MIC80,Candida albicans [2],> 64 µg/mL
same,MIC80,Candida tropicalis,> 64 µg/mL
same,MIC80,Nakaseomyces glabratus,32 µg/mL
same,MIC80,Cryptococcus neoformans [3],2 µg/mL
same,MIC80,Cryptococcus neoformans [4],1 µg/mL
same,MIC80,[5],1 µg/mL
same,MIC80,Candida albicans [6],4 µg/mL
same,MIC80,Candida albicans [7],1 µg/mL
same,MIC80,Candida albicans [8],1 µg/mL
same,MIC80,Candida albicans [9],2 µg/mL
same,MIC80,Candida albicans [10],1 µg/mL
same,MIC80,Candida albicans [11],8 µg/mL
same,MIC80,Candida albicans [12],> 64 µg/mL
same,MIC80,Candida albicans [13],1 µg/mL
same,MIC80,Candida albicans [14],2 µg/mL
same,MIC80,Candida albicans [15],1 µg/mL
same,MIC80,Candida albicans [16],0.5 µg/mL
same,MIC80,Candida albicans [17],2 µg/mL
same,inhibition at 64 µg/mL,Cryptococcus neoformans [18],80%
same,inhibition,Candida albicans [19],inactive
same,inhibition at 8 µg/mL,Candida albicans [20],50%
same,Activity,Candida albicans [21],Active
same,Activity,Candida albicans [22],Active
same,Activity,Candida albicans [23],Active
same,Activity,Candida albicans [24],Active
same,Activity,Candida albicans [25],Active
same,Activity,Candida albicans [26],Active
same,Activity,Candida albicans [27],Active
same,fold change (FC),Candida albicans [28],0.8
same,Activity,Candida albicans [29],5.31 log10CFU/g
same,Activity,Candida albicans [30],5.02 log10CFU/g
